Laboratory results from patent EP0120019B1, “PHARMACEUTICAL COMPOSITION HAVING A C[…]” (SCHERING AKTIENGESELLSCHAFT, priority 1982, dated 1983).

What was measured:
[1] = system: Menschliche Leukämiezellen und Lungenkarzinomzellen; assay: Inhibition of proliferation (growth kinetics by cell count) of tumour cells in culture; format: cell-based; details: for zytostatische Wirkung (Hemmung der Proliferation in vitro): general statement
[2] = system: weißen Blutzellen des Menschen; assay: Accumulation in cells on incubation, detected by fluorescence optics; format: cell-based; details: incubation with 10^-7 -10-5-molar concentration
Source text: Die selektive Wirkung auf Tumore wird auch dadurch unterstützt, daß sich Ergot-Alkaloide wie Lisurid in einzelnen Organen selektiv anreichern und damit hier zu besonders hoher Wirksamkeit gelangen.

[3] = system: adulte und embryonale Lungenfibroblasten; assay: Inhibition of proliferation of normal cells under the same culture conditions; format: cell-based; details: high doses such as 100 ug/ml; same test conditions
Source text: Tag durch frisches Medium mit Lisurid ersetzt wurde, wobei sich die Menge des Ergot-Alkaloids auf die freie Base Lisurid bezieht. Die Wachstumskinetik, d.h. die Vermehrungsrate pro Zeiteinheit, wurde durch Bestimmung der Zellzahl nach 48, 96 und 144 Stunden ermittelt und mit der von Zellen verglichen, die in Lisurid-freiem Medium kultiviert wurden.

[4] = Long-term oral treatment of rats (104 - 107 weeks), mortality; format: in vivo, Han-Wistar-Ratten; details: 0,02, 0,2 and 1,0 mg/kg oral
[5] = system: Lungenademokarzinomen und Mäuseleukämien; assay: Long-term oral treatment of mice (104 - 107 weeks), mortality and tumour incidence; format: in vivo, NMRI-Mäuse; details: 0.02, 0,06 and 0,2 mg/kg oral
Source text: Des weiteren wurden NMRI-Mäuse mit 0.02.

## CCN(CC)C(=O)N[C@H]1C=C2c3cccc4[nH]c(Br)c(c34)C[C@H]2N(C)C1 [Bromergurid, 1,1-Diethyl-3-(2-brom-6-methyl-9.10-didehydro-8a-ergolinyl)-harnstoff]
[1]
  zytostatische Wirkung (Hemmung der Proliferation in vitro): zytostatisch wirken

## CCN(CC)C(=O)N[C@H]1C=C2c3cccc4[nH]cc(c34)C[C@H]2N(C)C1 [Lisurid, 1,1-Diethyl-3-(6-methyl-9.10-didelhydro-8a-ergolinyl)-harnstoff]
[2]
  Anreicherung der Lisuridfluoreszenz: massive Anreicherung
[3]
  Hemmung von Normalzellen: wenn überhaupt nur minimal gehemmt
[4]
  Sterblichkeit (überwiegend tumorbedingt): dosisabhängig reduzieren
[5]
  Auftreten von Lungenademokarzinomen und Mäuseleukämien: deutlichen Hemmung
  Mortalität: teilweise zur Verminderung der Mortalität
[1]; 100 ug/ml
  zytotoxische Wirkung: zytotoxische Wirkung

## CCCN1CC(NC(=O)N(CC)CC)CC2c3cccc4[nH]cc(c34)CC21 (stereo not drawn) [Protegurid, 1,1-Diethyl-3-(6-u-propyl-8α-ergolinyl)-harnstoff]
[1]
  zytostatische Wirkung (Hemmung der Proliferation in vitro): zytostatisch wirken

## CCN(CC)C(=O)N[C@H]1C[C@@H]2c3cccc4[nH]cc(c34)C[C@H]2N(C)C1 [Tergurid, 1,1-Diethyl-3-(6-methyl-8a-erfolinyl)-harnstoff]
[1]
  zytostatische Wirkung (Hemmung der Proliferation in vitro): zytostatisch wirken
